Source: patent US20040029965A1, “Formulations for reducing or eliminating toxicity of enviromental hormones containing ursodeoxycholic acid” (priority 2000, published 2004)
Marks after values point to notes of the source that are not given here.

Tests used:
[1] = test system: C57B1/6J mice; assay: Hematological changes in mice by a single subcutaneous injection of TCDD; assay type: in vivo; design: NEU / LYM / PLT: unit not given here
Experimental: Male C57B1/6J mice of 5 weeks old having the average weight of 18-22 g which had been bred in CRJ (Charles River in Japan) were purchased and used in this example as experimental animals. Those mice were acclimated under the constant breeding condition, i.e. the temperature of 24±1° C., the humidity of 60±10% and the light and darkness cycle of 12 hours, for one week and thereafter, utilized in the experiment.
2,3,7,8-tetrachlorodibenzo-p-dioxin (TCDD) dissolved in toluene (purity of 95% or more as a result of gas chromatography analysis), manufactured by Chem. Services Inc. in USA, was volatilized with nitrogen to obtain powder. The obtained powder was dissolved in a mixed solvent containing acetone and corn oil with a volume ratio of 1:6. The resulting solution each containing 110, 27.5 and 6.9 μg/kg of TCDD was subcutaneously injected to mice at a volume of 5 ml per body weight. […] The mice were supplied with the feed from 10 days before (pre-administration) to 60 days after administration of TCDD (post-administration).
Upon completion of the experiment for 60 days, the experimental animals were fasted for 24 hours and anesthetized with ether. Then, they were abdominally incised and blood was gathered from abdominal vena cava. They were sacrificed by the release of blood. Liver, kidneys, testes and epididymides were extracted and all the extracted organs were weighed. Only the testes were separately kept and observed under optical and electron microscopes. For biochemical finding test, serum was separated from blood with a centrifuge and the separated serum was analyzed with an automated blood biochemical analyzer, Dimension (Dupont, USA). Blood was put to another blood gathering bottle and then, analyzed with an automated blood cell analyzer, Celldyn (Abbott, USA).
The results are expressed as Mean±Standard Deviation values. For statistical analysis of the body weight, feed and water uptake, biochemical findings, hematological findings and the weight of organ in an acute toxicity test, verification was performed by one way analysis of variance (ANOVA) in case of equal distribution. In case significance was recognized in ANOVA, the Student's t-test was performed in the levels of p<0.05 and p<0.01.
For hematological findings, white blood cell (WBC), neutrophil (NEU), lymphocyte (LYM), monocyte (MONO), eosinophil (EOS), basophil (BASO) and red blood cell (RBC) counts, and hemoglobin concentration (HGB), hematocrit (HCT), mean cell volume (MCV), mean corpuscular hemoglobin (MCH), mean corpuscular hemoglobin concentration (MCHC), red blood cell distribution width (RDW) and platelet count (PLT) were measured and the results are as follows.

[2] = test system: Ovariectomized female B6C3F1 mice; assay: Uterus weight changes by bisphenol A (uterine proliferation); assay type: in vivo; conditions: UDCA 2 mg/day alone, s.c. for 4 days
Experimental: Ovariectomized female B6C3F1 mice of 5 weeks old, the average weight of which was 18 to 22 g and had been bred in CRJ, were purchased. They were acclimated under the constant breeding conditions, i.e. the constant temperature of 24±1° C., the humidity of 60±10% and the light and darkness cycle of 12 hours, for one week and then, utilized in the experiment. The animals were supplied with solid feed purchased from Purina and supplied with water ad libitum. After acclimation, test materials dissolved in corn oil were subcutaneously injected once a day for 4 days. The test materials used herein, stock solutions of bisphenol A and UDCA were prepared using ethanol. 2 mg of bisphenol A dissolved in 0.2 ml of corn oil was administered to the mice alone or in combination with UDCA once a day. The administration dose of UDCA was 0.2 or 2.0 mg, and corn oil was administered to the solvent control.
The results are expressed as Mean±Standard Deviation values. ANOVA was performed to evaluate the mean distribution of administered groups. In case that the significance was recognized in ANOVA, the Student's t-test was carried out in the levels of p<0.05 and p<0.01.

[3] = TCDD 6.9 μg/kg + UDCA 0.125 wt %
[4] = TCDD 6.9 μg/kg + UDCA 0.25 wt %
[5] = TCDD 27.5 μg/kg + UDCA 0.125 wt %
[6] = TCDD 27.5 μg/kg + UDCA 0.25 wt %
[7] = TCDD 27.5 μg/kg + UDCA 0.5 wt %

## Clc1cc2c(cc1Cl)Oc1cc(Cl)c(Cl)cc1O2 [TCDD, 2,3,7,8-tetrachlorodibenzo-p-dioxin]
[1]; TCDD 6.9 μg/kg alone
  BASO: 0.21 ± 0.12 10^3
  EOS: 0.01 ± 0.01 10^3
  HCT: 43.12 ± 5.04%
  HGB: 13.65 ± 1.34 g/dL
  LYM: 4.27 ± 2.05 10^3
  MCH: 14.70 ± 0.41 pg
  MCHC: 31.76 ± 0.70 g/dL
  MCV: 46.33 ± 1.97 fL
  MONO: 0.10 ± 0.07 10^3
  NEU: 0.40 ± 0.24 10^3
  PLT: 1140.88 ± 133.39 10^3
  RBC: 9.29 ± 0.85 10^6
  RDW: 20.38 ± 1.21%
  WBC: 5.94 ± 1.85 10^3
[1]; TCDD 27.5 μg/kg alone
  BASO: 0.17 ± 0.07 10^3
  EOS: 0.018 ± 0.028 10^3
  HCT: 39.12 ± 3.25 %
  HGB: 12.90 ± 1.00 g/dL
  LYM: 1.43 ± 0.60** 10^3
  MCH: 14.17 ± 0.40 pg
  MCHC: 33.02 ± 0.86 g/dL
  MCV: 42.97 ± 0.56 fL
  MONO: 0.07 ± 0.04 10^3
  NEU: 2.58 ± 0.97** 10^3
  PLT: 1473.17 ± 110.35** 10^3
  RBC: 9.10 ± 0.71 10^6
  RDW: 20.97 ± 2.27%
  WBC: 4.29 ± 1.05 10^3

## C[C@H](CCC(=O)O)[C@H]1CC[C@H]2[C@@H]3[C@@H](O)C[C@@H]4C[C@H](O)CC[C@]4(C)[C@H]3CC[C@]12C [UDCA, 3α, 7β-dihydroxy-5β-cholanoic acid]
[2]
  Mean weight of uterus ± SD: 6.96 ± 1.34
[1]; [3]
  BASO: 0.12 ± 0.07 10^3
  EOS: 0.004 ± 0.005 10^3
  HCT: 44.61 ± 1.14%
  HGB: 14.35 ± 0.37 g/dL
  LYM: 5.06 ± 1.70 10^3
  MCH: 14.87 ± 0.22 pg
  MCHC: 32.18 ± 0.43 g/dL
  MCV: 46.18 ± 0.55 fL
  MONO: 0.05 ± 0.06 10^3
  NEU: 0.32 ± 0.13 10^3
  PLT: 1117.7 ± 88.65 10^3
  RBC: 9.66 ± 0.24 10^6
  RDW: 20.17 ± 1.07%
  WBC: 5.55 ± 1.91 10^3
[1]; [4]
  BASO: 0.09 ± 0.04 10^3
  EOS: 0.003 ± 0.002 10^3
  HCT: 44.77 ± 1.57%
  HGB: 14.16 ± 0.44 g/dL
  LYM: 5.17 ± 1.49 10^3
  MCH: 15.04 ± 0.25 pg
  MCHC: 31.63 ± 0.58 g/dL
  MCV: 47.56 ± 0.81 fL
  MONO: 0.04 ± 0.02 10^3
  NEU: 0.28 ± 0.07 10^3
  PLT: 1141.22 ± 67.79 10^3
  RBC: 9.42 ± 0.37 10^6
  RDW: 19.73 ± 0.91%
  WBC: 5.68 ± 1.50 10^3
[1]; TCDD 6.9 μg/kg + UDCA 0.5 wt %
  BASO: 0.10 ± 0.06 10^3
  EOS: 0.002 ± 0.002 10^3
  HCT: 45.35 ± 0.93%
  HGB: 14.47 ± 0.29 g/dL
  LYM: 5.12 ± 1.13 10^3
  MCH: 14.98 ± 0.19 pg
  MCHC: 31.87 ± 0.41 g/dL
  MCV: 47.08 ± 0.63 fL
  MONO: 0.04 ± 0.03 10^3
  NEU: 0.34 ± 0.11 10^3
  PLT: 1112.89 ± 76.53 10^3
  RBC: 9.64 ± 0.26 10^6
  RDW: 20.19 ± 0.72%
  WBC: 5.76 ± 1.13 10^3
[1]; [5]
  BASO: 0.09 ± 0.04 10^3
  EOS: 0.002 ± 0.003 10^3
  HCT: 43.77 ± 1.37 %
  HGB: 14.64 ± 0.67 g/dL
  LYM: 2.06 ± 0.81 10^3
  MCH: 15.32 ± 0.39 pg
  MCHC: 33.65 ± 1.04 g/dL
  MCV: 45.51 ± 0.35 fL
  MONO: 0.02 ± 0.01 10^3
  NEU: 0.34 ± 0.10## 10^3
  PLT: 1172.44 ± 80.58## 10^3
  RBC: 9.61 ± 0.29 10^6
  RDW: 20.08 ± 1.20%
  WBC: 3.69 ± 0.72 10^3
[1]; [6]
  BASO: 0.18 ± 0.07 10^3
  EOS: 0.008 ± 0.007 10^3
  HCT: 43.65 ± 1.24 %
  HGB: 14.23 ± 0.55 g/dL
  LYM: 2.99 ± 1.06## 10^3
  MCH: 15.01 ± 0.44 pg
  MCHC: 32.58 ± 0.73 g/dL
  MCV: 46.09 ± 0.42 fL
  MONO: 0.05 ± 0.03 10^3
  NEU: 0.48 ± 0.09## 10^3
  PLT: 1069.70 ± 128.48## 10^3
  RBC: 9.48 ± 0.29 10^6
  RDW: 19.99 ± 1.08%
  WBC: 3.78 ± 1.19 10^3
[1]; [7]
  BASO: 0.14 ± 0.07 10^3
  EOS: 0.005 ± 0.003 10^3
  HCT: 44.49 ± 1.63 %
  HGB: 14.80 ± 0.78 g/dL
  LYM: 3.04 ± 0.77## 10^3
  MCH: 15.46 ± 0.59 pg
  MCHC: 33.23 ± 1.04 g/dL
  MCV: 46.46 ± 0.86 fL
  MONO: 0.05 ± 0.04 10^3
  NEU: 0.59 ± 0.23## 10^3
  PLT: 1068.14 ± 84.28## 10^3
  RBC: 9.57 ± 0.25 10^6
  RDW: 20.44 ± 0.82%
  WBC: 3.71 ± 0.99 10^3
